According to patent publication US20250213561A1, “SELECTIVE HYPOTHALAMUS PERMEABLE HDAC6 INHIBITORS FOR TREATMENT OF LEPTIN-RESISTANT OBESITY” (The Children’s Medical Center Corporation, priority 2022, published 2025):

Tests used:
HDAC6 = assay: Ac-tubulin immunoblotting in HEK293 cells; format: cell-based
DIO mice [1] = assay: Conditioned place preference (CPP) assay in DIO mice; format: in vivo; details: for time and frequency in the food zone / time and frequency in the food-containing white side chambers: fed and fasting conditions; for cumulative duration in the dark side chambers: fed or fasting conditions
Method: DIO mice were treated with vehicle or ACY775 (10 mg/kg, i.p., once a day) for 3 days. On the fourth day, 1 h after the beginning of the light cycle, the mice were administered vehicle or ACY775 (10 mg/kg, i.p.) and the conditioned place preference (CPP) assay under the ad libitum feeding condition was utilized. The CPP assay was performed 6 h later under the ad libitum feeding condition (n=10 mice for both the Vehicle- and ACY775-treated groups). CPP assay under a 20-h fasting condition was also performed. DIO mice were treated with vehicle or ACY775 (10 mg/kg, i.p.) once a day and fasted for 15 h after the third injection. On the fourth day, 1 h after the beginning of the light cycle, the mice were administered vehicle or ACY775 (10 mg/kg body weight, i.p.) and the CPP assay was performed 5 h after this injection under the fasting condition (n=10 mice for both the Vehicle- and ACY775-treated groups).
Measurements were made of the total distance that the mice traveled during the CPP test, the average velocity of movement during the assay, the total time the mice spent in the dark chamber during the test; the frequency with which the mice traveled to the dark chamber during the test; the total time the mice spent in the food-paired white chamber; the frequency with which the mice traveled to the food paired white chamber; the total time the mice spent in the food-containing zone within the food-paired side chamber; and the frequency with which the mice traveled to the food-containing zone within the food-paired side chamber during the test.

HDAC6-KO DIO mice = assay: Chronic treatment of DIO WT versus HDAC6 KO mice; format: in vivo; details: for blood glucose, serum insulin and leptin levels, WT versus HDAC6 KO / fat mass and fat %, WT versus HDAC6 KO / food intake, WT versus HDAC6 KO / glucose tolerance and insulin sensitivity (GTT, ITT), WT versus HDAC6 KO / lean mass, WT versus HDAC6 KO / body weight, WT versus HDAC6 KO: DIO mice; for body weight, WT versus HDAC6 KO: 3 weeks, ACY775 10, ACY738 50, Tubastatin A 25 mg/kg/day i.p.
DIO mice [2] = assay: Chronic treatment of DIO mice (body weight, food intake, DEXA, glucose homeostasis); format: in vivo; details: for hepatic steatosis (H&E liver): 3 weeks; for food intake: 3 weeks treatment; for glucose tolerance test (GTT): after 1 week; for HOMA-IR insulin resistance / serum insulin levels / serum leptin levels: after 3 weeks; for food intake and total body fat mass (summary): high fat diet induced mice
Method: DIO mice were treated with ACY775 (10 mg/kg/day, i.p.) for 3 weeks. Daily body weight (g) of DIO mice treated with vehicle (n=17) or ACY775 (n=17) during 3 weeks of treatment was determined. Daily food intake (g) during 3 weeks of vehicle or ACY775 treatment was assessed. 24 hours' food intake per mouse during the first week of vehicle or ACY775 treatment was determined. Serum leptin (ng/ml) levels after 3 weeks of vehicle (n=24) or ACY775 (n=24) treatment was assessed. Lean mass (g), fat mass (g) and fat percentage (%) after 3 weeks of vehicle (n=17) or ACY775 (n=17) treatment measured by Dual-energy X-ray absorptiometry (DEXA) scan. DEXA scans were performed in two different cohorts. Glucose tolerance test (GTT) after 1 week of vehicle (n=33) or ACY775 (n=26) treated DIO mice was assessed. Area of curve (AOC) analysis for GTT was performed. Blood glucose (mg/dl) levels after 1 week of vehicle (n=17) or ACY775 (n=16) were assessed in treated DIO mice. Insulin tolerance test (ITT) was performed after 2 weeks of vehicle (n=31) or ACY775 (n=21) treatment of DIO mice. Serum insulin (ng/ml) levels were measured after 3 weeks of vehicle (n=22) or ACY775 (n=21) in treated DIO mice. A homeostatic model assessment of insulin resistance (HOMA-IR) was analyzed after 3 weeks of vehicle (n=14) or ACY775 (n=13) treated DIO mice.
Food intake was analyzed hourly until 3:00 am. […] DEXA scans were performed in two different cohorts.
DIO mice then were treated with ricolinostat (50 mg/kg, i.p.) for 3 weeks. Daily body weight (g), daily food intake (g), serum leptin (ng/ml) levels after 3 weeks of vehicle (n-8) or ricolinostat (n=8) treatment, lean mass (g); fat mass and fat percentage (%) after 3 weeks of vehicle (n=16) or ricolinostat (n=17) treatment measured by DEXA scan were determined.
Blood glucose (mg/dl) levels were measured after 1 week of vehicle (n=16) or ricolinostat (n=16) treated DIO mice. GTT after 1 week of vehicle (n=17) or ricolinostat (n=16) treatment of DIO mice was assessed. AOC analysis for GTT was performed. ITT after 2 weeks of vehicle (n=17) or ricolinostat (n=16) treated DIO mice was measured. Serum insulin (ng/ml) levels after 3 weeks of vehicle (n=8) or ricolinostat (n=8) treatment were measured in DIO mice. Liver sections from 3 weeks of vehicle or ricolinostat treated DIO mice were stained by H&E.
DIO mice then were treated with bavarostat (10 mg/kg, i.p.) for 3 weeks and daily body weight (g) of DIO mice treated with Veh (n=9) or bavarostat (n=9) measured during the three weeks of treatment period. Daily food intake (g) during 3 weeks of Veh or bavarostat treatment was also measured.
ACY1083 was administered to DIO mice as described in Example 3.

db/db mice = assay: Chronic treatment of db/db mice; format: in vivo; details: for ITT blood glucose: 2 weeks; for fasting blood glucose: after the first week
Method: Daily food intake (g), Serum leptin (ng/ml), lean mass (g), fat mass (g) and fat percentage (%) were measured after 3 weeks of treatment measured by DEXA scan. GTT was determined after 1 week of treatment. AOC analysis for GTT was performed and Blood glucose (mg/dl) levels were measured after 1 week of treatment. Blood glucose (mg/dl) levels and Serum insulin (ng/ml) levels were measured after 3 weeks of treatment. ITT was assessed after 2 weeks of treatment. H&E staining of the liver sections was conducted after 3 weeks of treatment.

DIO mice [3] = assay: CLAMS metabolic cages in DIO mice; format: in vivo; details: for energy expenditure: 3 days, ACY775 10 mg/kg, ACY738 50 mg/kg i.p.
Method: Diet induced obese (DIO) mice were placed into metabolic cages and received ACY775 (10 mg/kg, i.p., n=7) or vehicle (n=8) once a day for 3 days. Energy expenditure, respiratory exchange ratios (RER; VCO2/VO2), ambulatory count (physical activity) from each group of mice were determined. Bar graphs represent average of two dark (8-20 and 32-44 hr) and two light cycles ([…]).
Comprehensive Lab Animal Monitoring System (CLAMS) was used to measure metabolic parameters such as energy expenditure (EE) and respiratory exchange ratio (RER) and physical activity levels in Vehicle- and ACY775-treated mice.

Structure (SMILES): O=C(NO)c1cnc(NC2(c3ccccc3)CC2)nc1 [ACY738]
- tubulin acetylation (HDAC6 inhibitor activity in cells) (HDAC6): inhibits the HDAC6 activity
- time and frequency in the food zone (DIO mice [1]): spent significantly shorter time and displayed lower frequency of appearance
- time and frequency in the food-containing white side chambers (DIO mice [1]): spent similar time and frequency of appearance
- cumulative duration in the dark side chambers (DIO mice [1]): no significant differences in cumulative duration
- body weight in HDAC6 KO mice (HDAC6-KO DIO mice; DIO HDAC6 KO mice): slight decrease
- blood glucose, serum insulin and leptin levels, WT versus HDAC6 KO (HDAC6-KO DIO mice): all significantly higher in the ACY738-treated HDAC6 KO group
- fat mass and fat %, WT versus HDAC6 KO (HDAC6-KO DIO mice): significantly lower in the wt group compared to the HDAC6 KO group
- food intake, WT versus HDAC6 KO (HDAC6-KO DIO mice): significantly higher in the HDAC6 KO group
- glucose tolerance and insulin sensitivity (GTT, ITT), WT versus HDAC6 KO (HDAC6-KO DIO mice): did not improve glucose tolerance and increase insulin sensitivity in the HDAC6 KO mice
- lean mass, WT versus HDAC6 KO (HDAC6-KO DIO mice): not different
- body weight, WT versus HDAC6 KO (HDAC6-KO DIO mice): major difference
- insulin tolerance test (ITT) (DIO mice [2]; DIO mice): improved insulin tolerance
- hepatic steatosis (H&E liver) (DIO mice [2]; DIO mice): improved hepatic steatosis
- food intake (DIO mice [2]; DIO mice): severely reduced
- glucose tolerance test (GTT) (DIO mice [2]; DIO mice): significant improvement of glucose homeostasis
- HOMA-IR insulin resistance (DIO mice [2]; DIO mice): ameliorated insulin resistance
- serum insulin levels (DIO mice [2]; DIO mice): reduced insulin levels
- serum leptin levels (DIO mice [2]; DIO mice): significantly decreased
- food intake and total body fat mass (summary) (DIO mice [2]): significant reduction of food intake and total body fat mass
- food intake (db/db mice): not affected
- ITT blood glucose (db/db mice): no significant difference in blood glucose levels
- fasting blood glucose (db/db mice): not affected
- energy expenditure (DIO mice [3]): higher energy expenditure in light cycle, though without significant difference in dark cycle

Structure (SMILES): O=C(NO)c1cnc(NC2(c3cccc(F)c3)CCCCC2)nc1 [ACY775, 2-[[1-(3-fluorophenyl)cyclohexyl]amino]-N-hydroxy-5-pyrimidinecarboxamide]
- tubulin acetylation (HDAC6 inhibitor activity in cells) (HDAC6): increases tubulin acetylation
- time and frequency in the food zone (DIO mice [1]): spent significantly shorter time and displayed lower frequency of appearance
- time and frequency in the food-containing white side chambers (DIO mice [1]): spent significantly shorter time and had lower frequency of appearance
- cumulative duration in the dark side chambers (DIO mice [1]): no significant differences in cumulative duration
- blood glucose, serum insulin and leptin levels, WT versus HDAC6 KO (HDAC6-KO DIO mice): all significantly higher in the ACY775-treated HDAC6 KO group
- fat mass and fat %, WT versus HDAC6 KO (HDAC6-KO DIO mice): significantly lower in the wt group compared to the HDAC6 KO group
- food intake, WT versus HDAC6 KO (HDAC6-KO DIO mice): blocked in the HDAC6 KO mice
- glucose tolerance and insulin sensitivity (GTT, ITT), WT versus HDAC6 KO (HDAC6-KO DIO mice): could not increase glucose tolerance and insulin sensitivity in the HDAC6 KO mice
- lean mass, WT versus HDAC6 KO (HDAC6-KO DIO mice): not different
- body weight, WT versus HDAC6 KO (HDAC6-KO DIO mice): highly significant decrease in the bodyweight of the WT DIO mice when compared to HDAC6 KO DIO mice
- hepatic steatosis (H&E liver) (DIO mice [2]; DIO mice): almost completely abolished hepatic steatosis
- food intake (DIO mice [2]; DIO mice): highly significant reduction
- glucose tolerance test (GTT) (DIO mice [2]; DIO mice): significantly improved glucose tolerance
- HOMA-IR insulin resistance (DIO mice [2]; DIO mice): significantly reduced the insulin resistance
- serum insulin levels (DIO mice [2]; DIO mice): significantly reduced the circulating insulin levels
- serum leptin levels (DIO mice [2]; DIO mice): significantly downregulated
- daily food intake on treatment (DIO mice [2]; DIO mice, ACY775 10 mg/kg, ACY738 50 mg/kg i.p.): 0.85 ± 0.06 g
- food intake and total body fat mass (summary) (DIO mice [2]): significant reduction of food intake and total body fat mass
- food intake (db/db mice): transitionally reduced
- ITT blood glucose (db/db mice): no significant difference in blood glucose levels
- blood glucose lowering at end of treatment (db/db mice; 3 weeks): completely diminished
- fasting blood glucose (db/db mice): lower in ACY775-treated mice than vehicle-treated mice
- energy expenditure (DIO mice [3]): higher in the both dark and light cycle
- physical activity level (DIO mice [3]; dark and light cycles): not different
